Results taken from PubChem BioAssay (NCI).
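48-hour exposure; five concentrations; linearly interpolated endpoints. The concentration for 50% growth inhibition is given as GI50. TGI: concentration producing complete growth inhibition.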

Legend:
Assay in all cases: inhibition of tumour cell growth, NCI panel, 48 h
[1] = tested on: K-562 leukemia
[2] = tested on: MDA-N
[3] = tested on: CCRF-CEM leukemia
[4] = tested on: SK-MEL-2 melanoma
[5] = tested on: NCI-H460 lung
[6] = tested on: MCF7 breast
[7] = tested on: MDA-MB-231 breast
[8] = tested on: IGROV1 ovarian
[9] = tested on: OVCAR-5 ovarian
[10] = tested on: OVCAR-8 ovarian
[11] = tested on: SF-295 CNS
[12] = tested on: NCI/ADR-RES ovarian
[13] = tested on: SK-MEL-5 melanoma
[14] = tested on: NCI-H226 lung
[15] = tested on: SN12C renal
[16] = tested on: RPMI-8226 leukemia
[17] = tested on: LOX IMVI melanoma
[18] = tested on: 786-0 renal
[19] = tested on: HCC-2998 colon
[20] = tested on: SR leukemia
[21] = tested on: HT29 colon
[22] = tested on: HCT-116 colon
[23] = tested on: KM12 colon
[24] = tested on: SK-MEL-28 melanoma
[25] = tested on: BT-549 breast
[26] = tested on: A498 renal
[27] = tested on: MOLT-4 leukemia
[28] = tested on: HL-60(TB) leukemia
[29] = tested on: MDA-MB-435
[30] = tested on: M14 melanoma
[31] = tested on: PC-3 prostate
[32] = tested on: DU-145 prostate
[33] = tested on: SNB-19 CNS
[34] = tested on: RXF 393 renal
[35] = tested on: CAKI-1 renal
[36] = tested on: U251 CNS
[37] = tested on: COLO 205 colon
[38] = tested on: ACHN renal
[39] = tested on: SNB-75 CNS
[40] = tested on: HCT-15 colon
[41] = tested on: UACC-62 melanoma
[42] = tested on: MALME-3M melanoma
[43] = tested on: OVCAR-3 ovarian
[44] = tested on: NCI-H23 lung
[45] = tested on: UO-31 renal
[46] = tested on: OVCAR-4 ovarian
[47] = tested on: HOP-92 NSCLC
[48] = tested on: NCI-H522 lung
[49] = tested on: A549 NSCLC
[50] = tested on: HOP-62 NSCLC
[51] = tested on: EKVX NSCLC
[52] = tested on: SF-539 CNS
[53] = tested on: UACC-257 melanoma
[54] = tested on: SW-620 colon
[55] = tested on: T-47D breast
[56] = tested on: SF-268 CNS
[57] = tested on: SK-OV-3 ovarian
[58] = tested on: TK-10 renal
[59] = tested on: HS 578T breast

CSc1nc2c(c(=O)n1C)N=C(c1ccccc1)[C@H](C(CC(=O)c1ccccc1)c1ccccc1)C(c1ccccc1)N2 (stereo not given in full)
TGI [1]: > 100 µM | TGI [2]: > 100 µM | TGI [3]: > 100 µM | TGI [4]: > 100 µM | TGI [5]: > 100 µM | TGI [6]: > 100 µM | TGI [7]: > 100 µM | TGI [8]: > 100 µM | TGI [9]: > 100 µM | TGI [10]: > 100 µM | TGI [11]: > 100 µM | TGI [12]: > 100 µM | TGI [13]: > 100 µM | TGI [14]: > 100 µM | TGI [15]: > 100 µM | TGI [16]: > 100 µM | TGI [17]: > 100 µM | TGI [18]: > 100 µM | TGI [19]: > 100 µM | TGI [20]: > 100 µM | TGI [21]: > 100 µM | TGI [22]: > 100 µM | TGI [23]: > 100 µM | TGI [24]: > 100 µM | TGI [25]: > 100 µM | TGI [26]: > 100 µM | TGI [27]: > 100 µM | TGI [28]: > 100 µM | TGI [29]: > 100 µM | TGI [30]: > 100 µM | TGI [31]: > 100 µM | TGI [32]: > 100 µM | TGI [33]: > 100 µM | TGI [34]: > 100 µM | TGI [35]: > 100 µM | TGI [36]: > 100 µM | TGI [37]: > 100 µM | TGI [38]: > 100 µM | TGI [39]: > 100 µM | TGI [40]: > 100 µM | TGI [41]: > 100 µM | TGI [42]: > 100 µM | TGI [43]: > 100 µM | TGI [44]: > 100 µM | TGI [45]: > 100 µM | TGI [46]: > 100 µM | TGI [47]: > 100 µM | TGI [48]: > 100 µM | TGI [49]: > 100 µM | TGI [50]: > 100 µM | TGI [51]: > 100 µM | TGI [52]: > 100 µM | TGI [53]: > 100 µM | TGI [54]: > 100 µM

COc1ccc2c(c1)CC1=C(O2)c2ccc(OC)cc2OC1
TGI [1]: > 100 µM | TGI [2]: 38.4 µM | TGI [55]: 37.5 µM | TGI [3]: > 100 µM | TGI [4]: 81.6 µM | TGI [7]: 89.6 µM | TGI [8]: > 100 µM | TGI [9]: > 100 µM | TGI [10]: 78.2 µM | TGI [11]: > 100 µM | TGI [12]: > 100 µM | TGI [13]: 42.4 µM | TGI [14]: > 100 µM | TGI [15]: 44.3 µM | TGI [16]: > 100 µM | TGI [17]: 27.2 µM | TGI [18]: 50.8 µM | TGI [19]: > 100 µM | TGI [20]: > 100 µM | TGI [21]: 72.9 µM | TGI [22]: 41.8 µM | TGI [23]: > 100 µM | TGI [25]: 38.8 µM | TGI [26]: > 100 µM | TGI [27]: > 100 µM | TGI [28]: > 100 µM | TGI [29]: 47.5 µM | TGI [30]: 37.3 µM | TGI [31]: 57 µM | TGI [32]: > 100 µM | TGI [35]: 37.1 µM | TGI [56]: 68.5 µM | TGI [36]: 39.9 µM | TGI [37]: 33.8 µM | TGI [38]: 36.5 µM | TGI [39]: 66.3 µM | TGI [40]: 36.8 µM | TGI [41]: 39.2 µM | TGI [42]: 45.5 µM | TGI [43]: 36.4 µM | TGI [44]: > 100 µM | TGI [45]: > 100 µM | TGI [46]: 90.1 µM | TGI [48]: 35.4 µM | TGI [49]: > 100 µM | TGI [50]: > 100 µM | TGI [51]: 52.5 µM | TGI [52]: 85.1 µM | TGI [53]: 37.8 µM | TGI [54]: 34.6 µM | TGI [57]: > 100 µM | TGI [58]: 46.3 µM

C=CC(=O)N1CC2(CCN(c3nc(OC4CCN(CCCOC)CC4)nc4c(OCC(F)(F)F)c(-c5c(C)ccc6[nH]ncc56)c(C5CC5)cc34)CC2)C1
GI50 [1]: 2.07 µM | TGI [1]: 5.84 µM | GI50 [55]: 2.71 µM | TGI [55]: 9.46 µM | GI50 [3]: 2.46 µM | TGI [3]: 8.09 µM | GI50 [4]: 2.19 µM | TGI [4]: 4.77 µM | GI50 [5]: 2.09 µM | TGI [5]: 4.4 µM | GI50 [6]: 1.67 µM | TGI [6]: 3.37 µM | GI50 [7]: 1.98 µM | TGI [7]: 3.94 µM | GI50 [8]: 6.88 µM | TGI [8]: 21.3 µM | GI50 [9]: 5.31 µM | TGI [9]: 18 µM | GI50 [10]: 3.26 µM | TGI [10]: 17.4 µM | GI50 [11]: 2.08 µM | TGI [11]: 5.65 µM | GI50 [12]: 14.8 µM | TGI [12]: 36.6 µM | GI50 [13]: 2.14 µM | TGI [13]: 4.93 µM | GI50 [14]: 3.66 µM | TGI [14]: 16.5 µM | GI50 [15]: 2.36 µM | TGI [15]: 5.86 µM | GI50 [16]: 2.14 µM | TGI [16]: 5.81 µM | GI50 [17]: 1.7 µM | TGI [17]: 3.15 µM | GI50 [18]: 4.4 µM | TGI [18]: 18.2 µM | GI50 [19]: 2 µM | TGI [19]: 4.64 µM | GI50 [20]: 1.75 µM | TGI [20]: 4.77 µM | GI50 [21]: 2.28 µM | TGI [21]: 5.83 µM | GI50 [22]: 1.95 µM | TGI [22]: 4.17 µM | GI50 [23]: 1.96 µM | TGI [23]: 4.04 µM | GI50 [24]: 1.75 µM | TGI [24]: 3.37 µM | GI50 [25]: 2.26 µM | TGI [25]: 5.71 µM | GI50 [26]: 15.4 µM | TGI [26]: 29.5 µM | GI50 [27]: 1.67 µM | TGI [27]: 6.06 µM | GI50 [28]: 1.76 µM | TGI [28]: 4.57 µM | GI50 [29]: 1.85 µM | TGI [29]: 4 µM | GI50 [30]: 2 µM | TGI [30]: 3.97 µM | GI50 [31]: 2.61 µM | TGI [31]: 9.86 µM | GI50 [32]: 2.9 µM | TGI [32]: 9.12 µM | GI50 [33]: 6.89 µM | TGI [33]: 20.1 µM | GI50 [34]: 1.8 µM | TGI [34]: 3.73 µM | GI50 [35]: 4.15 µM | TGI [35]: 15.2 µM | GI50 [56]: 3.75 µM | TGI [56]: 13.6 µM | GI50 [36]: 2.81 µM | TGI [36]: 10 µM | GI50 [37]: 1.97 µM | TGI [37]: 3.73 µM | GI50 [38]: 2.11 µM | TGI [38]: 4.44 µM | GI50 [39]: 3.83 µM | TGI [39]: 16.8 µM | GI50 [40]: 1.66 µM | TGI [40]: 3.21 µM | GI50 [41]: 5.27 µM | TGI [41]: 18.9 µM | GI50 [42]: 1.66 µM | TGI [42]: 3.14 µM | GI50 [43]: 2.37 µM | TGI [43]: 5.28 µM | TGI [44]: 1.95 µM | GI50 [45]: 1.7 µM | TGI [45]: 3.13 µM | GI50 [46]: 4.54 µM | TGI [46]: 18.5 µM | GI50 [47]: 3.53 µM | TGI [47]: 11 µM | GI50 [48]: 1.78 µM | TGI [48]: 3.57 µM | GI50 [59]: 2.91 µM | TGI [59]: 13.3 µM | GI50 [49]: 3.45 µM | TGI [49]: 17.6 µM | TGI [50]: 19.6 µM | GI50 [51]: 4.33 µM | TGI [51]: 16.9 µM | GI50 [52]: 1.65 µM | TGI [52]: 3.07 µM | GI50 [53]: 3.03 µM | TGI [53]: 12.4 µM | GI50 [54]: 1.82 µM | TGI [54]: 3.59 µM | GI50 [57]: 8.57 µM | TGI [57]: 23.8 µM | GI50 [58]: 3.73 µM | TGI [58]: 14.3 µM
